This is an account of results in patent US6087121A, “Chemiluminescent detection of heme proteins in biological samples” (Mayo Foundation for Medical Education and Research, priority 1999, dated 2000).

Where “and” joins values, the source holds several entries; their conditions need not be identical. Equal values may be shown once.

Test [1] has as its target Hemoglobin (Homo sapiens, UniProt P68871+P69905). Kind of test: Inhibition of peroxidase activities with PS-1 by methimazole: Hemoglobin. Type of test: biochemical. As to conditions: 50 μmol/L methimazole, protein 1 μg/mL. The protocol:
(§1) Centricon ultrafiltration filters were obtained from Amicon (Daven, Mass.). Polystyrene tubes (5.0 mL volume, 75×12 mm) used for the assay were manufactured by Sarstedt (Arlington Heights, Ill.). The chemiluminescent substrate, 7-dimethylamino-naphthalene-1,2-dicarbonic acid-hydrazide (7-DNH) was purchased from Boehringer Mannheim (Indianapolis, Ind.). PS-1 acridan substrate (solution A and solution B) was obtained from Lumigen Inc. (Southfield, Mich.). Dimethyl sulfoxide, cetyltrimethyl-ammonium chloride (CTAC) as a 25% liquid and glycerol were obtained from Aldrich Chemical Company Inc. (Milwaukee, Wis.). Tween-20 and Sodium Chloride were purchased from Fisher Scientific (Fair Lawn, N.J.). […]
(§2) Urine samples were diluted 1:4 into distilled water to minimize inhibitory effects observed with hyperosmolal urines. […] MPO activity was determined by chemiluminescence emission using a Turner TD-20e luminometer maintained at 37° C. […]
(§3) The reactivity of PS-1 with heme proteins was assessed to determine if this substrate had more restricted specificity. […]

Test [2] concerns the target T1, Eosinophil Peroxidase (Homo sapiens, UniProt P11678).
T1 sequence (P11678 140-715): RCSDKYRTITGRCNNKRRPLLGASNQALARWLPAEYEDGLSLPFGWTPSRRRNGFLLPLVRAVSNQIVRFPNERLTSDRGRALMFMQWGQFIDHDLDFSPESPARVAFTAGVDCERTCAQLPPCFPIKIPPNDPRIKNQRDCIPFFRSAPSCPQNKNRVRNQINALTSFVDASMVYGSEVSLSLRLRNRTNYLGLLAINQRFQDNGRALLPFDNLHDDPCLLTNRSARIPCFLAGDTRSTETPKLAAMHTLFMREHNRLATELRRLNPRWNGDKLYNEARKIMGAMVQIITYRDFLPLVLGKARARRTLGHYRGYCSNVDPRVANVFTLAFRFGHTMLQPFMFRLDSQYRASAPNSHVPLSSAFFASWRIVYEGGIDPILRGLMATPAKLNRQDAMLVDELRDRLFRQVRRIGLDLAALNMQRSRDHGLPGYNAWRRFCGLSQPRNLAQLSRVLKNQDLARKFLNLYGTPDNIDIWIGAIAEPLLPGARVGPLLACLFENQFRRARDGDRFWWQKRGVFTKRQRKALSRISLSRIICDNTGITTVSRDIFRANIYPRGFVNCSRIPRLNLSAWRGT
In words: Inhibition of peroxidase activities with PS-1 by methimazole: Eosinophil Peroxidase. Type of test: biochemical. As to conditions: 50 μmol/L methimazole, enzyme 1 μg/mL. The protocol: (§4) Urine samples were diluted 1:4 into distilled water to minimize inhibitory effects observed with hyperosmolal urines. Two μL of diluted urine were added to 12×75 mm polystyrene test tube containing 50 μL of the PS-1 solution. The tubes were incubated at 37° C. for 5 minutes. MPO activity was determined by chemiluminescence emission using a Turner TD-20e luminometer maintained at 37° C. Leukocyte counting was performed manually by using a hemacytometer chamber (Kova Glasstic slide, Hycor, Irvine, Calif.) on each urine sample to determine the number of cells/mL.
(§5) The reactivity of PS-1 with heme proteins was assessed to determine if this substrate had more restricted specificity. Materials and methods were according to the description above.
(§6) Several peroxidases were detected with PS-1 substrate including EPO, MPO, LPO, and TPO. Addition of 50 μmol/L methimazole, an inhibitor of EPO, reduces activities of EPO, TPO and LPO by >90%, while MPO was inhibited by less than about 50% (Table 6). The addition of methimazole to the PS-1 assay allows MPO activity to be detected selectively.

Test [3] addresses T2, Myoglobin (Homo sapiens, UniProt P02144).
T2 sequence (P02144 1-154): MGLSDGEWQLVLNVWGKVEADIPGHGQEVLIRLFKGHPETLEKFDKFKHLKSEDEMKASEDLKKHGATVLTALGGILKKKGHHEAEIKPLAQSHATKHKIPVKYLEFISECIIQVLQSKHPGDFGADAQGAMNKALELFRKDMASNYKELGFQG
In words: Inhibition of peroxidase activities with PS-1 by methimazole: Myoglobin. In kind it is biochemical. To be noted: 50 μmol/L methimazole, protein 1 μg/mL. The protocol: as §1, §2, §3

The target in test [4] is T3, Myeloperoxidase (Homo sapiens, UniProt P05164).
T3 sequence (P05164 49-745): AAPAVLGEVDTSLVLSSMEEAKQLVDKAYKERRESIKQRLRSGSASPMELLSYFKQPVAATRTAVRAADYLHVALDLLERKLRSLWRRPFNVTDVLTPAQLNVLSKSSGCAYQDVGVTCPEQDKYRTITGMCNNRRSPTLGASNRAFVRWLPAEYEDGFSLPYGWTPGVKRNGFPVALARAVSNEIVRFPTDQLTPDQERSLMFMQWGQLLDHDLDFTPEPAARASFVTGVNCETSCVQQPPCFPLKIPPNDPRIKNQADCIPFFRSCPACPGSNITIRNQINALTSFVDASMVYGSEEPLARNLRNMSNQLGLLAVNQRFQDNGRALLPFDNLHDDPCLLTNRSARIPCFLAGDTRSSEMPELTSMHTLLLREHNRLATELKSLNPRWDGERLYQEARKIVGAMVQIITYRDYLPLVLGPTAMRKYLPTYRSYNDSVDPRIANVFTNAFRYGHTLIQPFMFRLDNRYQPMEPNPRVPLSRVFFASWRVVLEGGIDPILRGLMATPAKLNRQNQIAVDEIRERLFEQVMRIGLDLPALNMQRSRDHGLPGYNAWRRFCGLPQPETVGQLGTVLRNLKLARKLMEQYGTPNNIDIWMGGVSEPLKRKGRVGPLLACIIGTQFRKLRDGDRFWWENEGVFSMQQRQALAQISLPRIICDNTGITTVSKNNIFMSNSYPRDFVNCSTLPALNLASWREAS
In words: Inhibition of peroxidase activities with PS-1 by methimazole: Myeloperoxidase. As to conditions: 50 μmol/L methimazole, enzyme 1 μg/mL. In kind it is biochemical. The protocol: as §4, §5, §6

The target in test [5] is T4, Thyroid peroxidase (Homo sapiens, UniProt P07202).
T4 sequence (P07202 19-933): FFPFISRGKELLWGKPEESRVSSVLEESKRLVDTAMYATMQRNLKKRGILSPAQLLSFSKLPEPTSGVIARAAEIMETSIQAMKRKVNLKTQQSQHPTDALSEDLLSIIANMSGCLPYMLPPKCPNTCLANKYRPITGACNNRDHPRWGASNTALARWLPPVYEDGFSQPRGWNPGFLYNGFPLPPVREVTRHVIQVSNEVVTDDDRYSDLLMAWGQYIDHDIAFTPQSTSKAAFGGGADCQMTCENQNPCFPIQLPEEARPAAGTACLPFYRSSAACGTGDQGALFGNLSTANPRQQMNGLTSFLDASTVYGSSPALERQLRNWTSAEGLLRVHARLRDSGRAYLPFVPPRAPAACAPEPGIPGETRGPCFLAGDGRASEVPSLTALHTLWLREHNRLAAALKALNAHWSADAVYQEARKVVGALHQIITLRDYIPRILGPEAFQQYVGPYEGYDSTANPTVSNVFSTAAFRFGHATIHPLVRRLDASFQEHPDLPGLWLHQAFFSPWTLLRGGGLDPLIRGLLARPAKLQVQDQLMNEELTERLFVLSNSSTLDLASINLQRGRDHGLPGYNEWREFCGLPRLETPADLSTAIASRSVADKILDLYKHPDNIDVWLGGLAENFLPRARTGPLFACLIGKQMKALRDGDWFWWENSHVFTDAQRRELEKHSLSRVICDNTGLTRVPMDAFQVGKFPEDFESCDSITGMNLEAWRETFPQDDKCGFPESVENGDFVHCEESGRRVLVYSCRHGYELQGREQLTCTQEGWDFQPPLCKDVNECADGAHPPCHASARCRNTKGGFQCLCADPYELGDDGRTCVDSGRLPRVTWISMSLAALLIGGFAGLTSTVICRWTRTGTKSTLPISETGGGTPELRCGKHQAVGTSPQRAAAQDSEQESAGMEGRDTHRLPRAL
In words: Inhibition of peroxidase activities with PS-1 by methimazole: Thyroid peroxidase. Type of test: biochemical. To be noted: 50 μmol/L methimazole, enzyme 1 μg/mL. The protocol: as §4, §5, §6

For test [6], the target named is Lactoperoxidase (Bos taurus, UniProt P80025). Kind of test: Inhibition of peroxidase activities with PS-1 by methimazole: Lactoperoxidase. In kind it is biochemical. As to conditions: 50 μmol/L methimazole, enzyme 1 μg/mL. The protocol: as §4, §5, §6
The test system of test [7] is MPO. In words: Effect of temperature/time on chemiluminescence emission from MPO with PS-1. In kind it is biochemical. The protocol: as §4
The kinetics of chemiluminescence emission from MPO at 37° C. was followed over time using several urine samples diluted 4-fold in water (FIG. 11). […] Assays in Examples 10-16 were performed at 37° C., and chemiluminescence emission determined at 5 minutes.

Test [8] relates to Hb. Kind of test: Interference studies in Hb assay (7-DNH chemiluminescence). Type of test: biochemical, human. The protocol:
Numerous potential interfering substances, which either enhance or quench the signal generated by cyclic hydrazides, were evaluated. The effects of these potentially interfering substances on light emission was investigated at varying concentrations of the interfering composition. Assays were performed using serial dilutions of the potential interfering compositions in ultrafiltered urine at a fixed concentration of Hb. Comparisons of chemiluminescence emission were made between a reference solution (Hb in ultrafiltered urine) without added interfering compositions and solutions with added interferant.
Generally, the value of 3 RBC per high power field is the normal cutoff point.
Bilirubin and uric acid were examined as a possible negative interfering compositions because of their chemical structure which may quench energy emitted.

Test [9] has as its target T5, MPO (Homo sapiens, UniProt P05164).
T5 sequence (P05164 49-745): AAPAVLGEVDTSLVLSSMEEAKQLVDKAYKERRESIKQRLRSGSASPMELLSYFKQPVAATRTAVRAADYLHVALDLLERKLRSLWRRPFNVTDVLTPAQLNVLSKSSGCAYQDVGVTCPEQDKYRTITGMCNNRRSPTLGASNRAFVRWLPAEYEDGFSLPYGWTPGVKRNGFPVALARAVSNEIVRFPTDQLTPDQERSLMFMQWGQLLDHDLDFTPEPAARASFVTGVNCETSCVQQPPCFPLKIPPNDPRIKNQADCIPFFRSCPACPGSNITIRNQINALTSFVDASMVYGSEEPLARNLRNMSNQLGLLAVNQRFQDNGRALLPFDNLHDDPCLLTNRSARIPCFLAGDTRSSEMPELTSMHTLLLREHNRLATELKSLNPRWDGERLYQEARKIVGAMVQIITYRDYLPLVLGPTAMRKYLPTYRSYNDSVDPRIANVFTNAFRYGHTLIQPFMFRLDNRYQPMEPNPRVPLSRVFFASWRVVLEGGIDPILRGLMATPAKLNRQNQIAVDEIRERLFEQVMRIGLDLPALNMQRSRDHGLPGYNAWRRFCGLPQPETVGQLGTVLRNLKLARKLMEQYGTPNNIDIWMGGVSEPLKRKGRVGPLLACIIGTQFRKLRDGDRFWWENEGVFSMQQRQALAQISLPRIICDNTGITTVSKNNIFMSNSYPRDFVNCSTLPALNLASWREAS
Kind of test: Performance characteristics of WBC assay, MPO standard. As to conditions: listed as MPO. The protocol: as §4
Intra- and inter-assay imprecision was performed for MPO standards, WBC standards and 3 urine samples. Intra- and inter-assay imprecision tests were performed as described for the Hb assay in Example 7. The effect of time on the stability of enzyme activity in the leukocytes was examined. The effect of adding a quinoline antimicrobial agent, ofloxacin, was also studied with respect to its stabilization of the leukocytes.

Sequence of Hemoglobin (P69905 whole entry): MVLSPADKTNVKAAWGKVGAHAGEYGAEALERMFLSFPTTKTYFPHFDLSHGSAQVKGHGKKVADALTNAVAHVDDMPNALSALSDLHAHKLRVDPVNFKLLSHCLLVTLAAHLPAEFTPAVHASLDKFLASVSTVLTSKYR
Sequence of Hemoglobin (P68871 whole entry): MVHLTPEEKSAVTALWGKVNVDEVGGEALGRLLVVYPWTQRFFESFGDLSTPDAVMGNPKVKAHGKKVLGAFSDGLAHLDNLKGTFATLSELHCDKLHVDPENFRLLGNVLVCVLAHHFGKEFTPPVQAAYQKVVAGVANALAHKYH

Broadly, the inhibition is the change of the read-out against control, counted positive when it falls. Low values mean a weak effect, high ones a strong effect. For `Cn1cc[nH]c1=S` [Methimazole, methimazole], the Chemiluminescence with methimazole in test [1] is on record as 0.8 TLU; in [2] it was 74 TLU; in test [3], 1.9 TLU; in test [4], 130 TLU; in test [5] it was 0.1 TLU; in test [6], 0.9 TLU. Further, the inhibition at 50 µM was 9% in test [1]; > 90% in test [2]; 39% in test [3]; 58% in test [4]; > 90% in [5]; > 90% in test [6].

B1: Myeloperoxidase: myeloperoxidase obtained from Calbiochem (protein, UniProt P05164 165-745, looked up)
Myeloperoxidase: VTCPEQDKYRTITGMCNNRRSPTLGASNRAFVRWLPAEYEDGFSLPYGWTPGVKRNGFPVALARAVSNEIVRFPTDQLTPDQERSLMFMQWGQLLDHDLDFTPEPAARASFVTGVNCETSCVQQPPCFPLKIPPNDPRIKNQADCIPFFRSCPACPGSNITIRNQINALTSFVDASMVYGSEEPLARNLRNMSNQLGLLAVNQRFQDNGRALLPFDNLHDDPCLLTNRSARIPCFLAGDTRSSEMPELTSMHTLLLREHNRLATELKSLNPRWDGERLYQEARKIVGAMVQIITYRDYLPLVLGPTAMRKYLPTYRSYNDSVDPRIANVFTNAFRYGHTLIQPFMFRLDNRYQPMEPNPRVPLSRVFFASWRVVLEGGIDPILRGLMATPAKLNRQNQIAVDEIRERLFEQVMRIGLDLPALNMQRSRDHGLPGYNAWRRFCGLPQPETVGQLGTVLRNLKLARKLMEQYGTPNNIDIWMGGVSEPLKRKGRVGPLLACIIGTQFRKLRDGDRFWWENEGVFSMQQRQALAQISLPRIICDNTGITTVSKNNIFMSNSYPRDFVNCSTLPALNLASWREAS
In the case of B1, the “change in RLU (constant chemiluminescence emission)” value in test [7] (37° C., between 3 and 20 minutes) is listed as “less than 5%”. The “time of maximum light emission” value in test [7] (room temperature) came out at 15 min. The “Level of Interference (in words)” value in test [8] (highest conc: ascorbic acid 10, bilirubin 10, Cu++/Mn++ 40, sodium azide 500 μg/mL, uric acid 1 mg/mL) was “only interfere at very high concentrations”. Also, in [8] (level producing a signal equivalent to 3 RBC per high power field, fixed Hb concentration), the “Level of Interference” value was > 6.2 µg/mL. Besides, the “CV%, MPO Standard” value in test [9] (Table 10, intra-assay precision, 0.01% Triton incorporated) was 2.05% and 3.56% and 4.33% and 4.63%; in test [9] (Table 11, 0.01% Triton incorporated) it was 6.36% and 8.39% and 8.26% and 5.50%.
